The results in this text go back to PMC6127322, “Novel Imidazole and Methoxybenzylamine Growth Inhibitors Affecting Salmonella Cell Envelope Integrity and its Persistence in Chickens” (Scientific Reports, 2018).

Test [1] has as its system Salmonella enterica subsp. enterica serotype Typhimurium. In words: Checkerboard assay, SM and antibiotic combinations. In kind it is cell-based. The conditions noted are these: for MBC: Salmonella enterica, TYPHIMURIUM, antibiotic alone, M9 medium, read-out: AB MBCalone. The method, then:
The potentiation effect of several antibiotics, commonly used to control Salmonella, was studied in a checkerboard assay. […] The MBC of each antibiotic was determined in M9 medium prior the experiment using a dose-response assay, as described above. For potentiation studies, 100 μl of a S. […] The MBC of each antibiotic was determined as described in the dose-response assay. Bacteria challenged with SMs or antibiotics alone at the same concentrations were used to determine the antibiotic-SM combination effects. […] Further, the bacterial suspension was plated on an agar medium and incubated at 37 °C for 36 hrs. The antibiotic-SM combination effect was calculated based on the determination of the fractional bactericidal concentration (FBC) as previously described[66],[67].

The test system of test [2] is Kan^R S. Typhimurium in G. mellonella larvae. Kind of test: Efficacy in Salmonella-infected G. mellonella larvae. It counts as in vivo, Galleria mellonella. The conditions noted are these: for Survival of infected larvae: three days. The method, then:
Wax moths were selected as mentioned above. For this study, Kan^R S. Typhimurium was used for challenge. First, the virulence of Kan^R S. Typhimurium was assessed in comparison to WT parent S. Typhimurium strain in G. mellonella. Briefly, larvae (n = 20) were infected in one pro-leg with approximately 8.5 × 10^3 S. Typhimurium suspended in 10 mM MgSO4 (8,5 µl of inoculum) and incubated for three days in the dark at 37 °C in a petri dish. Survival was monitored every 12 hrs for three days. Bacterial quantification was performed once the larvae had died (dark pigmentation or no reaction to a mechanical stimulus) or after 72 hrs of incubation. Larvae were washed once with 70% ethanol, twice with sterile distilled water for 30 sec each, and transferred individually into an Eppendorf® tubes containing 1 ml of 1X PBS and homogenized. The mixture was serially diluted, plated on XLT-4 agar plate supplemented with 50 µg/ml kanamycin, and incubated for 36 hrs at 37 °C. Larvae not treated and larvae treated with the buffer mix were included as controls. The virulence of Kan^R and WT S. Typhimurium strains was assessed by comparing the larval mortality and bacterial counts.
To test the effect of SMs on S. Typhimurium in larvae, SMs and Kan^R S. Typhimurium were injected into two different pro-legs and at different time points as previously described. First, the larvae were treated with SMs, then incubated for 2 hrs at 37 °C in a petri dish, and infected with approximately 8.5 × 10^3 of Kan^R S. Typhimurium per larva. Summary of treatments are described in Supplementary Table S3. Larvae treated with 50 mg/kg chloramphenicol were used as control (lowest concentration of antibiotic allowing 100% larva survival rate; see Supplementary Fig. S3F).
34 Supplemental Table 3. SM treatment groups: wax moth study
Groups Treatment S. Typhimurium*
Negative control 30% DMSO Yes
36 At the given concentration, SMs were soluble at 30% DMSO and higher. Asterisk:
37 larvae were infected with approximately 3.5 X 104 S. Typhimurium bacteria per […]

For test [3], the system named is S. Typhimurium LT2 wild-type (WT) strain. In words: Dose-response assay (MIC and MBC determination) in M9 broth. It counts as cell-based, Salmonella enterica subsp. enterica serovar Typhimurium. The conditions noted are these: 12 hrs at 37 °C, read-out: MBC (minimal bactericidal concentration). The method, then: Typhimurium using high-throughput screening assay in a 96-well plate format. […] Plates were incubated in a Sunrise Tecan kinetic microplate reader for 12 hrs at 37 °C and the optical density (OD) was measured at 600 nm. The percentage of growth inhibition was calculated as: […]. Cultures from wells showing no turbidimetric increase were transferred onto a XLT4 agar plate. Plates were incubated at 37 °C for 36 hrs. […] S. Typhimurium was challenged with a determined concentration of SM as described in the primary screen.

Another test deals with S. Typhimurium. In kind it is cell-based, Salmonella enterica subsp. enterica serovar Typhimurium.
The subject of test [4] is nine Salmonella serotypes. Kind of test: Activity spectrum and dose-response across Salmonella serotypes. In kind it is cell-based, Salmonella enterica. The procedure:
The 128 SMs inhibiting S. Typhimurium growth (20% or higher) were tested for their antimicrobial effect on nine different Salmonella serovars frequently implicated in foodborne gastroenteritis outbreaks. […] Both screens were performed at 200 µM as described in the primary screening. Growth conditions for each strain are described in Supplementary Table S2.
S. Typhimurium was challenged with a determined concentration of SM as described in the primary screen.

The next test has as its system Salmonella Saint-Paul. Kind of test: Dose-response assay (MBC) on Salmonella serovars. In kind it is cell-based, Salmonella enterica. Particulars: serovar Saint-Paul, M9 broth.
Another test relates to Salmonella Heidelberg. In words: Dose-response assay (MBC) on Salmonella serovars. It counts as cell-based. Particulars: Salmonella enterica; serovar Heidelberg, M9 broth.
A further test concerns Salmonella Enteritidis. In words: Dose-response assay (MBC) on Salmonella serovars. It counts as cell-based. The conditions noted are these: Salmonella enterica; serovar Enteritidis, M9 broth.
For a further test, the system named is Salmonella Newport. In words: Dose-response assay (MBC) on Salmonella serovars. In kind it is cell-based. Particulars: Salmonella enterica; serovar Newport, M9 broth.
A further test concerns Salmonella Javiana. In words: Dose-response assay (MBC) on Salmonella serovars. In kind it is cell-based, Salmonella enterica.
The mark [5] stands for this setting: antibiotic combined with SM1 at the concentration in the next cell.
Where [6] appears, read: antibiotic combined with SM3 at the concentration in the next cell.
The mark [7] stands for this setting: antibiotic combined with SM4 at the concentration in the next cell.
Where [8] appears, read: antibiotic combined with SM5 at the concentration in the next cell.

In brackets after ≈: the same amount, converted by molar mass. Like-named read-outs stand apart in the source and are kept apart here.

For the molecule `CC[C@H]1OC(=O)[C@H](C)[C@@H](O[C@H]2C[C@@](C)(OC)[C@@H](O)[C@H](C)O2)[C@H](C)[C@@H](O[C@@H]2O[C@H](C)C[C@H](N(C)C)[C@H]2O)[C@](C)(O)C[C@@H](C)C(=O)[C@H](C)[C@@H](O)[C@]1(C)O` [Erythromycin], the MBC in [1] (12 h) worked out at 200 µg/mL. Also, the “AB MBCcombined” value in [1] (setting [5]), in test [1] (setting [6]), in test [1] (setting [7]) and in test [1] (setting [8]) was 200 µg/mL throughout. Also, the “Combination effect (FBC class)” value in [1] (antibiotic with SM1) is “c (Indifferent (FBC > 1.0 and ≤2.0; reduction in MBCs inferior to 50% for both antibiotic and SM))”; in test [1] (antibiotic with SM3) it was “c (Indifferent (FBC > 1.0 and ≤2.0; reduction in MBCs inferior to 50% for both antibiotic and SM))”; in [1] (antibiotic with SM4), “c (Indifferent (FBC > 1.0 and ≤2.0; reduction in MBCs inferior to 50% for both antibiotic and SM))”; in [1] (antibiotic with SM5), “c (Indifferent (FBC > 1.0 and ≤2.0; reduction in MBCs inferior to 50% for both antibiotic and SM))”.

On to `O=C(N[C@H](CO)[C@H](O)c1ccc([N+](=O)[O-])cc1)C(Cl)Cl` [chloramphenicol], for which the “Survival of infected larvae” value was 100% in test [2] (50 mg/kg); 100% in test [2] (50, 75, and 100 mg/kg, treated 2 hrs before infection). Further, in [2] (infected larvae), the “Lowest concentration allowing 100% larva survival rate” value was 50 mg/kg.

Regarding `CO/N=C(\C(=O)N[C@@H]1C(=O)N2C(C(=O)O)=C(COC(C)=O)CS[C@H]12)c1csc(N)n1` [Cefotaxime], the MBC in [1] (12 h) was determined as 3.2 µg/mL. The “AB MBCcombined” value in test [1] (setting [5]), in test [1] (setting [6]), in test [1] (setting [7]) and in test [1] (setting [8]) was 3.2 µg/mL each time. Moreover, the “Combination effect (FBC class)” value was “c (Indifferent (FBC > 1.0 and ≤2.0; reduction in MBCs inferior to 50% for both antibiotic and SM))” in test [1] (antibiotic with SM1); “c (Indifferent (FBC > 1.0 and ≤2.0; reduction in MBCs inferior to 50% for both antibiotic and SM))” in [1] (antibiotic with SM3); “c (Indifferent (FBC > 1.0 and ≤2.0; reduction in MBCs inferior to 50% for both antibiotic and SM))” in [1] (antibiotic with SM4); “c (Indifferent (FBC > 1.0 and ≤2.0; reduction in MBCs inferior to 50% for both antibiotic and SM))” in test [1] (antibiotic with SM5).

`O=[N+]([O-])c1ccc(F)c(N=Cc2cc(Cl)cc(Cl)c2O)c1` [SM7]: the MBC in test [3] was found to be 50 µM (≈ 16.5 µg/mL).

With `CN(CCO)CC(O)Cn1c2ccc(Br)cc2c2cc(Br)ccc21` (stereo not drawn) [SM2], the “Concentration in which resistant bacteria were able to grow” value in the test with S. Typhimurium (M9 broth, 4X MBC) came out at 400 µM. The “Resistance development of S. Typhimurium” value with S. Typhimurium (lethal dose (2X MBC) on solid medium or repeated exposure to sub-lethal dose (0.75X MBC) in liquid medium) is given as “developed resistance”. For the same molecule, the MBC in [3] is 100 µM (≈ 45.6 µg/mL); in test [3] (Salmonella enterica) it was 100 µM (≈ 45.6 µg/mL); in test [4] (Salmonella, read-out: MBCs among the nine serotypes), 100 to 200 µM (≈ 45.6 to 91.2 µg/mL); with Salmonella Saint-Paul it was 200 µM (≈ 91.2 µg/mL); against Salmonella Heidelberg it was 200 µM (≈ 91.2 µg/mL); in the test on Salmonella Enteritidis it was 200 µM (≈ 91.2 µg/mL). In addition, the MBC in the test on Salmonella Newport and in the test with Salmonella Javiana was 200 µM (≈ 91.2 µg/mL) in each case. Further, in test [4] (200 µM, M9 broth), the “Effect against the nine Salmonella serotypes” value is listed as “cidal”.

Consider `COc1cccc(N=Cc2cc(Cl)cc(Cl)c2O)c1` [SM8], for which, in test [3], the MBC was 100 µM (≈ 29.6 µg/mL).

`CCn1cc(C(=O)O)c(=O)c2ccc(C)nc21` [Nalidixic acid]: the MBC in test [1] (12 h) and in test [1] was 16 µg/mL in each case. In addition, the “AB MBCcombined” value in test [1] (setting [6]), in test [1] (setting [7]) and in test [1] (setting [8]) was 16 µg/mL in each case. The “Combination effect (FBC class)” value in [1] (antibiotic with SM1) was “c (Indifferent (FBC > 1.0 and ≤2.0; reduction in MBCs inferior to 50% for both antibiotic and SM))”; in test [1] (antibiotic with SM3), “c (Indifferent (FBC > 1.0 and ≤2.0; reduction in MBCs inferior to 50% for both antibiotic and SM))”; in test [1] (antibiotic with SM4), “c (Indifferent (FBC > 1.0 and ≤2.0; reduction in MBCs inferior to 50% for both antibiotic and SM))”; in test [1] (antibiotic with SM5) it was “c (Indifferent (FBC > 1.0 and ≤2.0; reduction in MBCs inferior to 50% for both antibiotic and SM))”.

Take `C[C@@H](O)[C@H]1C(=O)N2C(C(=O)O)=C(S[C@@H]3CN[C@H](C(=O)N(C)C)C3)[C@H](C)[C@H]12` [Meropenem]: the MBC in test [1] (12 h) and in [1] was 0.2 µg/mL in each case. The “AB MBCcombined” value in test [1] (setting [7]) and in [1] (setting [8]) was 0.2 µg/mL each time. The “Combination effect (FBC class)” value in test [1] (antibiotic with SM1) was “b (Additive effect (FBC > 0.5 and ≤ 1.0; percentage reduction in MBCs between 50% and 75% for both antibiotic and SM))”; in [1] (antibiotic with SM3) it was “c (Indifferent (FBC > 1.0 and ≤2.0; reduction in MBCs inferior to 50% for both antibiotic and SM))”; in [1] (antibiotic with SM4) it was “c (Indifferent (FBC > 1.0 and ≤2.0; reduction in MBCs inferior to 50% for both antibiotic and SM))”; in test [1] (antibiotic with SM5), “c (Indifferent (FBC > 1.0 and ≤2.0; reduction in MBCs inferior to 50% for both antibiotic and SM))”.
